Results as given in US20230365592A1 (Agios Pharmaceuticals, Inc., priority 2022, published 2023).

Molecular target: T1, human PAH with the R408W mutation (Homo sapiens, UniProt P00439, R408W)
T1 construct: expressed in transfected cells
T1 sequence (P00439 1-452 R408W): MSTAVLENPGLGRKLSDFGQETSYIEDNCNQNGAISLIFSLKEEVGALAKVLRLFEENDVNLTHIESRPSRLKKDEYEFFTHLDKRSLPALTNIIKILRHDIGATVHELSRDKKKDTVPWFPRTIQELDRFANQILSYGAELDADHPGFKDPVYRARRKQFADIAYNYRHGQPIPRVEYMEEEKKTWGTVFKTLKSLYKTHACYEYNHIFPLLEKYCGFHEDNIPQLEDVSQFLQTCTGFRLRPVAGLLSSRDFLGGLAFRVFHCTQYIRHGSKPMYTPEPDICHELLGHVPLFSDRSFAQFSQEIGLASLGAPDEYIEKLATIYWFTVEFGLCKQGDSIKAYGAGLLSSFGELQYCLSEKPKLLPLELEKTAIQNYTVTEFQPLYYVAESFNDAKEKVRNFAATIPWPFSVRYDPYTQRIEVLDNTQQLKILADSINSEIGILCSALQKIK
Experiment: Cell Based Phenylalanine Flux Assay;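 note: after compound treatment, cells received sepiapterin plus isotope-labelled Phenylalanine for 4 hours, then labelled Tyrosine in the medium was quantified, 10-point 2-fold dilution series run in duplicate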
Conditions: A375 cells expressing R408W PAH; 24 hrs with compound, then 20 µM sepiapterin and 800 µM 13C9,15N-Phenylalanine for 4 hours; 13C-Tyrosine by LC-MS; average where tested multiple times; read-out: AC50

Row | AC50 [µM] | Compound
1 | 1 to 5 | CN1CCN(c2nnc(C(=O)N3CCc4[nH]cnc4C3c3cc4c(F)cccn4n3)o2)CC1 (stereo not shown)
2 | 1 to 5 | COc1cccn2nc(C3c4nc[nH]c4CCN3C(=O)c3cnn4cc(N(C)C)ccc34)cc12 (stereo not shown)
3 | 1 to 5 | Cn1ncc(C(=O)N2CCc3[nH]cnc3C2c2cc3ccccn3n2)c1C(F)F (stereo not shown)
4 | 1 to 5 | Cc1nc(C(C)(C)O)oc1C(=O)N1CCc2[nH]cnc2C1c1cc2cccc(C)n2n1 (stereo not shown)
5 | 1 to 5 | Cc1cccc2cc(C3c4nc[nH]c4CCN3C(=O)c3nnc(-c4cncn4C)o3)nn12 (stereo not shown)
6 | > 5 | CC(C)c1nnc(N2CCc3[nH]cnc3C2c2cc3c(C(C)C)cccn3n2)o1 (stereo not shown)
7 | > 5 | Nc1cnc(N2CCc3[nH]cnc3[C@H]2c2cc3cccc(C(F)F)n3n2)nc1 (single isomer, unassigned)
8 | > 5 | Cc1nnc(C(=O)N2CCc3[nH]cnc3C2c2cc3ccccn3n2)o1 (stereo not shown)

Same assay, conditions: A375 cells expressing human PAH R408W; 24 hrs compound incubation; 13C-Tyrosine by LC-MS; average where tested multiple times; read-out: AC50

Row | AC50 [µM] | Compound
9 | < 0.5 | Fc1cccc(F)c1-c1nnc(N2CCc3[nH]cnc3[C@H]2c2cc3cccc(Cl)n3n2)o1 [Example 2089, (S)-2-(4-(7-chloropyrazolo[1,5-a]pyridin-2-yl)-1,4,6,7-tetrahydro-5H-imidazo[4,5-c]pyridin-5-yl)-5-(2,6-difluorophenyl)-1,3,4-oxadiazole]
10 | > 5 | FC(F)(F)c1ccc(N2CCc3[nH]cnc3[C@@H]2c2cc3cccc(Cl)n3n2)nc1 [Example 2137, (R)-4-(7-chloropyrazolo[1,5-a]pyridin-2-yl)-5-(5-(trifluoromethyl)pyridin-2-yl)-4,5,6,7-tetrahydro-1H-imidazo[4,5-c]pyridine]
11 | > 5 | O=C(c1nnc(-c2ccn(C(F)F)n2)o1)N1CCc2[nH]cnc2[C@@H]1c1cc2c(C3CC3)cccn2n1 [Example 1931, (R)-(4-(4-cyclopropylpyrazolo[1,5-a]pyridin-2-yl)-1,4,6,7-tetrahydro-5H-imidazo[4,5-c]pyridin-5-yl)(5-(1-(difluoromethyl)-1H-pyrazol-3-yl)-1,3,4-oxadiazol-2-yl)methanone]
12 | > 5 | Cc1ccn2nc([C@H]3c4nc[nH]c4CCN3C(=O)c3nnc(-c4ccccn4)o3)cc2c1 [Example 2385, (R)-(4-(5-methylpyrazolo[1,5-a]pyridin-2-yl)-6,7-dihydro-1H-imidazo[4,5-c]pyridin-5(4H)-yl)(5-(pyridin-2-yl)-1,3,4-oxadiazol-2-yl)methanone]
13 | < 0.5 | Cc1cccn2nc([C@@H]3c4nc[nH]c4CCN3C(=O)[C@@H]3CC3(F)F)cc12 [Example 2028, ((S)-2,2-difluorocyclopropyl)((S)-4-(4-methylpyrazolo[1,5-a]pyridin-2-yl)-1,4,6,7-tetrahydro-5H-imidazo[4,5-c]pyridin-5-yl)methanone]
14 | 0.5 to 1 | CC(C)c1cccn2nc([C@@H]3c4nc[nH]c4CCN3c3nnc(-c4cccnc4F)o3)cc12 [Example 2335, (S)-2-(2-fluoropyridin-3-yl)-5-(4-(4-isopropylpyrazolo[1,5-a]pyridin-2-yl)-1,4,6,7-tetrahydro-5H-imidazo[4,5-c]pyridin-5-yl)-1,3,4-oxadiazole]
15 | 1 to 5 | O=C(c1ocnc1C1CC1)N1CCc2[nH]cnc2[C@@H]1c1cc2c(F)cccn2n1 [Example 1987, (R)-(4-cyclopropyloxazol-5-yl)(4-(4-fluoropyrazolo[1,5-a]pyridin-2-yl)-1,4,6,7-tetrahydro-5H-imidazo[4,5-c]pyridin-5-yl)methanone]
16 | < 0.5 | Cc1cccn2nc([C@@H]3c4nc[nH]c4CCN3c3cnccn3)cc12 [Example 1805, (S)-4-(4-methylpyrazolo[1,5-a]pyridin-2-yl)-5-(pyrazin-2-yl)-4,5,6,7-tetrahydro-1H-imidazo[4,5-c]pyridine]
17 | 1 to 5 | Cc1nnc(N2CCc3[nH]cnc3[C@H]2c2cc3c(C(F)F)cccn3n2)o1 [Example 2467, (S)-2-(4-(4-(difluoromethyl)pyrazolo[1,5-a]pyridin-2-yl)-6,7-dihydro-1H-imidazo[4,5-c]pyridin-5(4H)-yl)-5-methyl-1,3,4-oxadiazole]
18 | < 0.5 | FC(F)(F)c1nnc(N2CCc3[nH]cnc3[C@H]2c2cc3c(C(F)(F)F)cccn3n2)o1 [Example 1821, (S)-2-(trifluoromethyl)-5-(4-(4-(trifluoromethyl)pyrazolo[1,5-a]pyridin-2-yl)-6,7-dihydro-1H-imidazo[4,5-c]pyridin-5(4H)-yl)-1,3,4-oxadiazole]
19 | 1 to 5 | FC(F)(F)c1nnc(N2CCc3[nH]cnc3[C@H]2c2cc3cccc(Cl)n3n2)o1 [Example 2493, (S)-2-(4-(7-chloropyrazolo[1,5-a]pyridin-2-yl)-1,4,6,7-tetrahydro-5H-imidazo[4,5-c]pyridin-5-yl)-5-(trifluoromethyl)-1,3,4-oxadiazole]

Same assay, conditions: A375 cells expressing human R408W PAH; 24 hrs compound incubation; 13C-Tyrosine by LC-MS; average where tested multiple times; read-out: AC50

Row | AC50 [µM] | Compound
20 | 0.5 to 1 | Cc1ccc2c(C(=O)N3CCc4[nH]cnc4[C@H]3c3cc4cccc(F)n4n3)cnn2c1 [Example 1786, (S)-(4-(7-fluoropyrazolo[1,5-a]pyridin-2-yl)-6,7-dihydro-1H-imidazo[4,5-c]pyridin-5(4H)-yl)(6-methylpyrazolo[1,5-a]pyridin-3-yl)methanone]
21 | 0.5 to 1 | O=C(c1nnc(C2CCC2)o1)N1CCc2[nH]cnc2[C@H]1c1cc2cccc(C(F)F)n2n1 [Example 1573, (S)-(5-cyclobutyl-1,3,4-oxadiazol-2-yl)(4-(7-(difluoromethyl)pyrazolo[1,5-a]pyridin-2-yl)-6,7-dihydro-1H-imidazo[4,5-c]pyridin-5(4H)-yl)methanone]
22 | 1 to 5 | O=C(c1nnc(-c2cccnc2)o1)N1CCc2[nH]cnc2[C@@H]1c1cc2c(C(F)(F)F)cccn2n1 [Example 1303, (R)-(5-(pyridin-3-yl)-1,3,4-oxadiazol-2-yl)(4-(4-(trifluoromethyl)pyrazolo[1,5-a]pyridin-2-yl)-6,7-dihydro-1H-imidazo[4,5-c]pyridin-5(4H)-yl)methanone]
23 | 1 to 5 | O=C(c1nnc(-c2ccn(C(F)(F)F)n2)o1)N1CCc2[nH]cnc2[C@@H]1c1cc2c(Cl)cccn2n1 [Example 1477, (R)-(4-(4-chloropyrazolo[1,5-a]pyridin-2-yl)-6,7-dihydro-1H-imidazo[4,5-c]pyridin-5(4H)-yl)(5-(1-(trifluoromethyl)-1H-pyrazol-3-yl)-1,3,4-oxadiazol-2-yl)methanone]
24 | > 5 | Cc1cccc2cc([C@H]3c4nc[nH]c4CCN3C(=O)c3nnc(-c4ncccc4F)o3)nn12 [Example 913, (R)-(5-(3-fluoropyridin-2-yl)-1,3,4-oxadiazol-2-yl)(4-(7-methylpyrazolo[1,5-a]pyridin-2-yl)-6,7-dihydro-1H-imidazo[4,5-c]pyridin-5(4H)-yl)methanone]
25 | < 0.5 | Cn1nc(C(F)F)cc1C(=O)N1CCc2[nH]cnc2[C@H]1c1cc2cccc(Cl)n2n1 [Example 1384, (S)-(4-(7-chloropyrazolo[1,5-a]pyridin-2-yl)-6,7-dihydro-1H-imidazo[4,5-c]pyridin-5(4H)-yl)(3-(difluoromethyl)-1-methyl-1H-pyrazol-5-yl)methanone]
26 | < 0.5 | CC(C)(O)c1nc(Cl)c(C(=O)N2CCc3[nH]cnc3[C@H]2c2cc3c(Cl)cccn3n2)o1 [Example 720, (S)-(4-chloro-2-(2-hydroxypropan-2-yl)oxazol-5-yl)(4-(4-chloropyrazolo[1,5-a]pyridin-2-yl)-6,7-dihydro-1H-imidazo[4,5-c]pyridin-5(4H)-yl)methanone]
27 | 1 to 5 | C[C@@H](O)c1nc(C(F)F)c(C(=O)N2CCc3[nH]cnc3[C@@H]2c2cc3cccc(Cl)n3n2)o1 [Example 1197, ((R)-4-(7-chloropyrazolo[1,5-a]pyridin-2-yl)-6,7-dihydro-1H-imidazo[4,5-c]pyridin-5(4H)-yl)(4-(difluoromethyl)-2-((R)-1-hydroxyethyl)oxazol-5-yl)methanone]
28 | 1 to 5 | O=C(c1nnc(C2CCC2)o1)N1CCc2[nH]cnc2[C@@H]1c1cc2c(C(F)F)cccn2n1 [Example 1521, (R)-(5-cyclobutyl-1,3,4-oxadiazol-2-yl)(4-(4-(difluoromethyl)pyrazolo[1,5-a]pyridin-2-yl)-6,7-dihydro-1H-imidazo[4,5-c]pyridin-5(4H)-yl)methanone]
29 | < 0.5 | O=C(c1cnn2cc(C3CC3)ccc12)N1CCc2[nH]cnc2[C@H]1c1cc2c(F)cccn2n1 [Example 1672, (S)-(6-cyclopropylpyrazolo[1,5-a]pyridin-3-yl)(4-(4-fluoropyrazolo[1,5-a]pyridin-2-yl)-6,7-dihydro-1H-imidazo[4,5-c]pyridin-5(4H)-yl)methanone]
30 | > 5 | Cn1cnc(-c2nnc(C(=O)N3CCc4[nH]cnc4[C@@H]3c3cc4c(F)cccn4n3)o2)c1 [Example 808, (R)-(4-(4-fluoropyrazolo[1,5-a]pyridin-2-yl)-6,7-dihydro-1H-imidazo[4,5-c]pyridin-5(4H)-yl)(5-(1-methyl-1H-imidazol-4-yl)-1,3,4-oxadiazol-2-yl)methanone]
31 | < 0.5 | Cn1nc(C(F)F)nc1C(=O)N1CCc2[nH]cnc2[C@H]1c1cc2c(C(F)(F)F)cccn2n1 [Example 1060, (S)-(3-(difluoromethyl)-1-methyl-1H-1,2,4-triazol-5-yl)(4-(4-(trifluoromethyl)pyrazolo[1,5-a]pyridin-2-yl)-6,7-dihydro-1H-imidazo[4,5-c]pyridin-5(4H)-yl)methanone]
